# According to patent US8309597B2, “1,1′-diadamantyl carboxylic acids, medicaments containing such compounds and their use” (Boehringer Ingelheim International GmbH, priority 2008, dated 2012):
# Biological target: T1, 11β-hydroxysteroid dehydrogenase (HSD) 1 (Homo sapiens, UniProt P28845)
# T1 construct: detecting cortisol generated from cortisterone by human liver microsomes; from tissue; host or cells: human liver microsomes
# Test: In vitro inhibition of 11β-HSD1, HTRF detection of cortisol generated from cortisone by human liver microsomes
# Format: biochemical
# Conditions: compound concentration 1 μM, 100% indicates no inhibition, zero or below zero indicates complete inhibition
# Method: Briefly, compounds are incubated for 1 hour at 37° C. in Tris buffer (20 mM tris, 5 mM EDTA, pH 6.0) containing NADPH (200 μM) and cortisone (80 nM). Cortisol generated in the reaction is then detected with a competitive immunoassay, involving two HTRF conjugates: cortisol linked to XL665 and anti-cortisol antibody labeled with Europium cryptate. The incubation period for detection reaction is typically 2 hours. The amount of cortisol is determined by reading the time-resolved fluorescence of the wells (Ex 320/75 nm; Em 615/8.5 nm and 665/7.5 nm). The ratio of the two emission signals is then calculated (Em665*10000/Em615). […] Each assay also contains a calibration curve with cortisol to transform the fluorescent data into cortisol concentrations. Percent inhibition (% CTL) of each compound is determined relative to the carbenoxolone signal and IC50 curves are generated.
# The % CTL values of some example compounds at a concentration of 1 μM are provided in the following Table 2 wherein 100% indicates no inhibition and a value of zero or below zero indicates complete inhibition. The measurement of % CTL is described hereinbefore.
# T1 sequence (P28845 whole entry): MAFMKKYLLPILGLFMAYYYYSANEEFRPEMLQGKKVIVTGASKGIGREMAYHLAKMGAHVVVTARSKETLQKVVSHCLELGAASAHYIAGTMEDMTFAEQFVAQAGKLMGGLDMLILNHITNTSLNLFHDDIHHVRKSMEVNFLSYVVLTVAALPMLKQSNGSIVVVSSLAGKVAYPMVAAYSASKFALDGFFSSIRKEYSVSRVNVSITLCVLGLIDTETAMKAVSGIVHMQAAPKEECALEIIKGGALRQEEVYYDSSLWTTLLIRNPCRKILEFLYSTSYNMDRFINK
row,11β-HSD 1 inhibitory activity (% CTL at 1 μM) [% CTL],SMILES
1,−26,CCN(C)C(=O)C12CC3CC(C1)CC(C14CC5CC(CC(C(=O)O)(C5)C1)C4)(C3)C2 [Example 18]
2,13,CN(C(=O)C12CC3CC(C1)CC(C14CC5CC(CC(C(=O)O)(C5)C1)C4)(C3)C2)C1CCC(c2ccccc2)CC1 (stereo not shown) [Example 36]
3,53,O=C(O)C12CC3CC(C1)CC(C14CC5CC(CC(C(=O)NCCO)(C5)C1)C4)(C3)C2 [Example 13]
4,95,NC12CC3CC(C1)CC(C14CC5CC(CC(C(=O)O)(C5)C1)C4)(C3)C2 [Example 8]
5,37,CN1CCN(C(=O)C23CC4CC(C2)CC(C25CC6CC(CC(C(=O)O)(C6)C2)C5)(C4)C3)CC1 [Example 22]
6,49,CN(Cc1ccccc1)C(=O)C12CC3CC(C1)CC(C14CC5CC(CC(C(=O)O)(C5)C1)C4)(C3)C2 [Example 9]
7,−3,CCN(C(=O)C12CC3CC(C1)CC(C14CC5CC(CC(C(=O)O)(C5)C1)C4)(C3)C2)C1CCCCC1 [Example 35]
8,−11,CC(C)(O)C12CC3CC(C1)CC(C14CC5CC(CC(C(=O)O)(C5)C1)C4)(C3)C2 [Example 3]
9,61,CN(C(=O)C12CC3CC(C1)CC(C14CC5CC(CC(C(=O)O)(C5)C1)C4)(C3)C2)C1CCCNC1 (stereo not shown) [Example 31]
10,−33,COc1ccc(C(=O)C23CC4CC(C2)CC(C25CC6CC(CC(C(=O)O)(C6)C2)C5)(C4)C3)cc1 [Example 24]
11,69,O=C(O)C12CC3CC(C1)CC(C14CC5CC(CC(c6nnn[nH]6)(C5)C1)C4)(C3)C2 [Example 21]
12,96,O=C(O)C12CC3CC(C1)CC(C14CC5CC(CC(C(=O)Nc6ccccc6)(C5)C1)C4)(C3)C2 [Example 28]
13,81,COc1ccc(N(C)C(=O)C23CC4CC(C2)CC(C25CC6CC(CC(C(=O)O)(C6)C2)C5)(C4)C3)cc1 [Example 33]
14,4,O=C(O)C12CC3CC(C1)CC(C14CC5CC(CC(C(=O)N6CCc7ccccc76)(C5)C1)C4)(C3)C2 [Example 51]
15,62,O=C(O)C12CC3CC(C1)CC(C14CC5CC(CC(C6=NCc7ccccc7N6)(C5)C1)C4)(C3)C2 [Example 37]
16,−8,CN(C(=O)C12CC3CC(C1)CC(C14CC5CC(CC(C(=O)O)(C5)C1)C4)(C3)C2)C1CCCCC1 [Example 29]
17,12,O=C(O)C12CC3CC(C1)CC(C14CC5CC(CC(c6nc7ccccc7o6)(C5)C1)C4)(C3)C2 [Example 27]
18,−9,O=C(O)C12CC3CC(C1)CC(C14CC5CC(CC(c6ncc7ccccc7n6)(C5)C1)C4)(C3)C2 [Example 50]
19,−15,COCC1CCCN1C(=O)C12CC3CC(C1)CC(C14CC5CC(CC(C(=O)O)(C5)C1)C4)(C3)C2 (stereo not shown) [Example 47]
20,34,O=C(O)C12CC3CC(C1)CC(C14CC5CC(CC(COc6ccccn6)(C5)C1)C4)(C3)C2 [Example 15]
21,44,O=C(O)C12CC3CC(C1)CC(C14CC5CC(CC(c6nnc(-c7ccccc7)o6)(C5)C1)C4)(C3)C2 [Example 26]
22,0,O=C(O)C12CC3CC(C1)CC(C14CC5CC(CC(c6nc7ccccc7n6CCc6ccccc6)(C5)C1)C4)(C3)C2 [Example 41]
23,−17,N#Cc1ccc2c(c1)CN(C(=O)C13CC4CC(C1)CC(C15CC6CC(CC(C(=O)O)(C6)C1)C5)(C4)C3)CC2 [Example 44]
24,−11,O=C(O)C12CC3CC(C1)CC(C14CC5CC(CC(C(=O)N6CCCC6)(C5)C1)C4)(C3)C2 [Example 11]
25,30,CN(C(=O)C12CC3CC(C1)CC(C14CC5CC(CC(C(=O)O)(C5)C1)C4)(C3)C2)c1ccccc1 [Example 30]

row,11β-HSD 1 inhibitory activity (% CTL at 1 μM) [% CTL],SMILES
1,50,NC(=O)C12CC3CC(C1)CC(C14CC5CC(CC(C(=O)O)(C5)C1)C4)(C3)C2 [Example 5]
2,−26,CC(C)N(C)C(=O)C12CC3CC(C1)CC(C14CC5CC(CC(C(=O)O)(C5)C1)C4)(C3)C2 [Example 17]
3,53,O=C(O)C12CC3CC(C1)CC(C14CC5CC(CC(C(=O)N(CCc6ccccc6)C6CCCCC6)(C5)C1)C4)(C3)C2 [Example 39]
4,29,CNC(=O)C12CC3CC(C1)CC(C14CC5CC(CC(C(=O)O)(C5)C1)C4)(C3)C2 [Example 2]
5,1,N#CC12CC3CC(C1)CC(C14CC5CC(CC(C(=O)O)(C5)C1)C4)(C3)C2 [Example 6]
6,−13,CN(C)C(=O)C12CC3CC(C1)CC(C14CC5CC(CC(C(=O)O)(C5)C1)C4)(C3)C2 [Example 4]
7,−36,O=C(O)C12CC3CC(C1)CC(C14CC5CC(CC(C(=O)N6Cc7ccccc7C6)(C5)C1)C4)(C3)C2 [Example 42]
8,24,O=C(O)C12CC3CC(C1)CC(C14CC5CC(CC(C(=O)N6CCc7cc(Br)ccc7C6)(C5)C1)C4)(C3)C2 [Example 49]
9,19,N#CNC(=O)C12CC3CC(C1)CC(C14CC5CC(CC(C(=O)O)(C5)C1)C4)(C3)C2 [Example 19]
10,−3,CN(CCc1ccccc1)C(=O)C12CC3CC(C1)CC(C14CC5CC(CC(C(=O)O)(C5)C1)C4)(C3)C2 [Example 10]
11,8,Cn1c(C23CC4CC(C2)CC(C25CC6CC(CC(C(=O)O)(C6)C2)C5)(C4)C3)nc2ccccc21 [Example 32]
12,0,CN(C)C(=O)c1ccc(Oc2ccc3c(c2)CN(C(=O)C24CC5CC(C2)CC(C26CC7CC(CC(C(=O)O)(C7)C2)C6)(C5)C4)CC3)cc1 [Example 46]
13,8,O=C(O)c1ccc(Oc2ccc3c(c2)CN(C(=O)C24CC5CC(C2)CC(C26CC7CC(CC(C(=O)O)(C7)C2)C6)(C5)C4)CC3)cc1 [Example 45]
14,−20,CN(C(=O)C12CC3CC(C1)CC(C14CC5CC(CC(C(=O)O)(C5)C1)C4)(C3)C2)C1CCCC1 [Example 40]
15,−5,O=C(O)C12CC3CC(C1)CC(C14CC5CC(CC(CO)(C5)C1)C4)(C3)C2 [Example 14]
16,69,CC(=O)NC12CC3CC(C1)CC(C14CC5CC(CC(C(=O)O)(C5)C1)C4)(C3)C2 [Example 16]
17,26,CC(C)(C)OC(=O)NC12CC3CC(C1)CC(C14CC5CC(CC(C(=O)O)(C5)C1)C4)(C3)C2 [Example 7]
18,−7,COC(=O)C12CC3CC(C1)CC(C14CC5CC(CC(C(=O)O)(C5)C1)C4)(C3)C2 [Example 1]
19,7,CN(C(=O)C12CC3CC(C1)CC(C14CC5CC(CC(C(=O)O)(C5)C1)C4)(C3)C2)C1CCC(C(C)(C)C)CC1 (stereo not shown) [Example 38]
20,36,CN(C(=O)C12CC3CC(C1)CC(C14CC5CC(CC(C(=O)O)(C5)C1)C4)(C3)C2)c1ccc(-c2ccccc2)cc1 [Example 34]
21,−20,O=C(O)C12CC3CC(C1)CC(C14CC5CC(CC(C(=O)N6CCc7ccccc7C6)(C5)C1)C4)(C3)C2 [Example 43]
22,1,O=C(O)C12CC3CC(C1)CC(C14CC5CC(CC(C(=O)N6CCOCC6)(C5)C1)C4)(C3)C2 [Example 12]
23,−18,COc1ccc(CCCN(C)C(=O)C23CC4CC(C2)CC(C25CC6CC(CC(C(=O)O)(C6)C2)C5)(C4)C3)cc1 [Example 23]
24,7,O=C(O)C12CC3CC(C1)CC(C14CC5CC(CC(C(=O)N6CCC6)(C5)C1)C4)(C3)C2 [Example 20]
